Data taken from US5488051A, “Substituted 5,6-dihydro-5-oxo-1,4-dithiino-(2,3-d)-pyridazine-2,3-dicarbonitriles, compositions containing them and their use as antimicrobials” (The Dow Chemical Company, priority 1994, dated 1996).
Values after ≈ are worked out from the molar mass of the structure shown. Read-outs that look alike come from different tables or passages of the source.

Legend:
[1] = system: Candida albicans (Ca); assay: MIC for Candida albicans, malt yeast agar; format: cell-based, Candida albicans ATCC 10231; conditions: malt yeast agar; 30° C., 48 hours for yeast; read-out: Minimum Inhibitory Concentration (MIC), Ca
Method in brief: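 Agar dilution on malt yeast agar with compound (from 1% acetone/water solution) at final 0, 1.0, 2.5, 5, 10, 25, 50, 100, 250, 500 ppm. Plates inoculated by replicator with saline suspensions (1:9 diluted) of 7-day cultures; incubated at 30 °C, read at 48 h for yeast and 72 h for fungi.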

[2] = system: marine organism growth; assay: Marine antifouling rating of coated test panels exposed to marine environment; parameters: species or system marine organisms; conditions: scale 10 (completely free of growth) to 0 (completely covered); for Marine Antifouling Rating, 10 Week Test, Bottom Panel / Marine Antifouling Rating, 10 Week Test, Top Panel: 10 weeks; for Marine Antifouling Rating, 10 Week Test, Top Panel: untreated Control 7
Experimental: Test panels are prepared from clear, rigid polyvinyl chloride film that is 0.381×10^-3 m thick and has one textured surface. The test panels are 0.1524 m by 0.1524 m squares that have 0.00635 m holes punched at corners on 0.127 m centers. A 0.102 square template, with a 0.067 m diameter hole at the center, is attached to the center of the textured surface of the test panels.
A candidate marine antifoulant compound (1.0 g) is stirred into a resinous latex binder (9.0 g). A portion of the compound/binder mixture (1.5 g) is added to the center of the test panel and uniformly spread over the circular area inside the template.
Water is added dropwise as needed to properly spread the compound/binder mixture. The template prevents the compound/binder mixture from spreading beyond the uncovered area. The test panel is allowed to sit for between ten to thirty minutes until the edge of the spread compound/binder mixture has dried. The template is then removed. The test panel is then allowed to dry for 8 to 12 hours at room temperature.
Two test panels are prepared for each candidate marine antifoulant compound. Two control test panels are also prepared by only treating with the resinous latex binder. One test panel of each candidate marine […] compound is attached over a white background to the topside of an exposure support apparatus. The second test panel is attached over a black background to the underside of the exposure support apparatus. The exposure support apparatus is placed horizontally 0.0254 m under a marine surface with the white background topside facing up. The exposure support apparatus is exposed to the marine environment for both 10 and 20 weeks during which time the control test panels become substantially covered with mature marine organism growth on both the topside and underside exposures.
After being removed from the exposure support apparatus, each test panel is inspected and rated for marine organism growth on both the treated and untreated areas of the test panel. The marine organisms present on the treated and untreated areas are noted. The presence of algae spores and bacterial slime are noted but not included in rating each test panel. The test panels are rated on a scale from 10 (representing completely free of marine organism growth) to 0 (representing completely covered with marine organism growth).
In Table V, the marine antifouling rating values for some of the compounds listed in Table I are set forth, as well as the ratings for control panels (using no marine antifouling compound, and referred to in Table V as "Control") and panels using a standard commercial marine antifouling compound (with copper (I) oxide (Cu2 O) as the active agent and referred to in Table V as "STANDARD II").

[3] = system: Pseudomonas aeruginosa (PRD-10); assay: MIC for Pseudomonas aeruginosa PRD-10, nutrient agar; format: cell-based, Pseudomonas aeruginosa ATCC 15442; conditions: 30° C., 48 hours, read-out: Minimum Inhibitory Concentration (MIC), PRD
Method in brief: (§1)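 Nutrient agar, pH 6.8 or 8.2; cpd 1–500 ppm final in agar (from 1% acetone/water soln), plates dried 24 h; inoculum 10^8 CFU/mL via Steer's replicator; 30° C, 48 h; growth/no growth read.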

[4] = system: Proteus vulgaris (Pv); assay: MIC for Proteus vulgaris, nutrient agar; format: cell-based, Proteus vulgaris ATCC 881; conditions: 30° C., 48 hours, read-out: Minimum Inhibitory Concentration (MIC), Pv
Method in brief: as §1

[5] = bottom panel (black background), untreated Control 1

| Structure (SMILES) | MIC [1] | Marine Antifouling Rating, 10 Week Test, Bottom Panel [2, 5] | Marine Antifouling Rating, 10 Week Test, Top Panel ([2]; top panel (white background)) | Marine Antifouling Rating, 20 Week Test, Bottom Panel ([2]; 20 weeks, bottom panel (black background), untreated Control 1) | Marine Antifouling Rating, 20 Week Test, Top Panel ([2]; 20 weeks, top panel (white background), untreated Control 1) | MIC ([3]; pH 6.8, nutrient agar) | MIC ([3]; pH 8.2, nutrient agar) | MIC ([4]; pH 6.8, nutrient agar) | MIC ([4]; pH 8.2, nutrient agar) |
| --- | --- | --- | --- | --- | --- | --- | --- | --- | --- |
| Cc1ccc(-n2ncc3c(c2=O)SC(C#N)=C(C#N)S3)cc1 [B, 5,6-dihydro-6-(4-methylphenyl)-5-oxo-1,4-dithiino-(2,3-d)-pyridazine-2,3-dicarbonitrile] | < 10 µg/mL | 4 | 10 | 1 | 1 | > 500 µg/mL | > 500 µg/mL | 500 µg/mL (≈ 1540 µM) | > 500 µg/mL |
| N#CC1=C(C#N)Sc2c(cnn(-c3ccc(Br)cc3)c2=O)S1 [C, 5,6-dihydro-6-(4-bromophenyl)-5-oxo-1,4-dithiino-(2,3-d)-pyridazine-2,3-dicarbonitrile] | 10 µg/mL (≈ 25.7 µM) | 1 | 7 |  |  | > 500 µg/mL | > 500 µg/mL | 250 µg/mL (≈ 642 µM) | > 500 µg/mL |
